The results in this text go back to patent publication US20090111893A1, “METHOD OF LOWERING BLOOD GLUCOSE AND METHOD OF PREVENTING OR TREATING BLOOD GLUCOSE AND METHOD OF PREVENTING OR TREATING DIABETES AND OBESITY” (National University Corporation Gunma University, priority 2007, published 2009).

The test system of one data set is Mouse 3T3-L1 fibroblasts. As to the kind of experiment: Glucose uptake of confluent 3T3-L1 fibroblasts (glucose concentration in medium). The data set is classed as cell-based. Particulars: for glucose uptake-promoting activity: 3T3-L1 cells, same condition as Example 1, FIG. 3, n=3. The method, then: (1) Mouse 3T3-L1 fibroblasts were cultured in 1 ml of a suitable medium (contained in a 12-well plastic dish) for several days until the cells reached confluence. Then, the cells were cultured for 10-12 hours in the nutrition medium (None), the nutrition medium to which only 0.2% ethanol, a solvent of DIF-1, was added (EtOH), and the nutrition medium to which 10 or 20 µM DIF-1 dissolved in ethanol was added, respectively, and then, glucose concentration in each of the media was determined, based on which glucose uptake rate of the cells was calculated and the ratio with respect to the control was plotted (FIG. 1). […] The data of FIG. 1 are shown by mean value and standard deviation (Bars) of four independent experiments (n=4). (2) Then, mouse 3T3L1 fibroblasts were cultured in 1 ml of a suitable medium (contained in a 12-well plastic dish) until the cells reached confluence. After changing the medium to a new medium (this time point corresponds to 0 hour in the graph), DIF-1 was added, and glucose concentration in the medium was measured at the time point of 20 hours (FIG. 2A), based on which glucose consumption rate was calculated (FIG. 2B). Then, the media were changed to new media containing no DIF-1 for all the samples, and after culture was continued for another 20 hours, glucose concentration was measured (FIG. 2A). The number of cells at this time point was also determined (FIG. 2C). The data of the graph are mean values and standard deviations (Bars) (n=3) of the results of triplicate samples evaluated under the same conditions.
Glucose uptake-promoting activity of DIF-1 and its artificial derivatives (2-MIDIF1, DMPH, THPH) were compared in the same condition as Example 1 (FIG. 3). The data of the graph are mean values and standard deviations (Bars) (n=3) of three independent experiments.
Glucose uptake-promoting activity of DIF-1 derivative compounds in 3T3-L1 cells was evaluated in the same manner as described above. The data of the graph are mean values and standard deviations (Bars) (n=3) of triplicate samples measured under the same conditions.

For a further data set, the system named is KKAy diabetic model mice. It is filed as in vivo. Particulars: for blood glucose level as compared with the control group: KKAy mice, intraperitoneal 25, 50 and 100 mg/kg, 4 and 8 hours after administration, n=2, FIG. 6; for death of mice: mouse, in vivo. The method, then: The in vivo effects of DIF-1 and DIF-1 (3M) were also evaluated with the KKAy diabetic model mice. The drugs were administered intraperitoneally to KKAy mice (male, 13 weeks: Clea Japan) at the concentrations of 25, 50, and 100 mg/kg, respectively, and after free feeding (Time 0), blood glucose level was monitored at the indicated time points (FIG. 6). Each of the experiments used two mice, and the mean values of the relative blood glucose concentrations and ½ variance (Bars)(n=2) were plotted.

Data set [1] concerns RGM-1 cells (isolated from rat gastric mucosa). As to the kind of experiment: Glucose uptake of RGM-1 cells (glucose concentration in medium). The data set is classed as cell-based. The method, then:
Similar experiments were performed with RGM-1 cells (isolated from rat gastric mucosa) to evaluate the change in glucose concentration in the medium containing DIF-1 or other compounds (FIG. 4). The data of the graph are mean values and standard deviations (Bars) (n=3) of triplicate samples measured under the same conditions.

The test system of another data set is 3T3-L1 adipocytes. As to the kind of experiment: 2-deoxy glucose uptake in 3T3-L1 adipocytes, with or without insulin. The data set is classed as cell-based, mouse. As to the method: Confluent 3T3-L1 fibroblasts (cultured in a 12-well plate) were treated with IBMX (3-isobutyl-1-methylxanhine), dexamethasone, and insulin to induce differentiation into 3T3-L1 adipocytes (Student A K, Hsu R Y & Lane M D (1980) J. Biol. Chem. 255, 4745-4750.). The 3T3-L1 adipocytes were cultured in the presence of DIF-1 whose concentration is shown in FIG. 5 for four hours, and 2-deoxy glucose uptake was measured. At the same time, some of the adipocytes were stimulated with 100 nM insulin during cultivation (after 3.5 hours) in the presence of DIF-1, and cultured for another 30 minutes, and glucose uptake of the cells was measured. Each experiment was performed in triplicates, and the mean values thereof were calculated in each experiment. Such experiments were performed twice and the mean values and ½ variance (Bars) of the two experiments (n=2) were plotted in FIG. 5.

In another data set the test system is ICR mice. Put plainly: Blood glucose level in ICR mice after intraperitoneal glucose. The settings on record: glucose 0.3 g/kg i.p. together with DIF-1, 50 mg/kg group and 100 mg/kg group, FIG. 7. It is filed as in vivo, mouse. As to the method: Glucose (0.3 g/kg) was administered intraperitoneally to ICR mice (male, 6-7 weeks) together with DIF-1 (solvent: 5% DMSO, 5% CREMOPHOR, and 90% distilled water), and blood glucose level was determined from just after the administration. Mice to which only glucose was administered was used as a control group, and mice to which neither glucose nor DIF-1 was administered was used as a normal group.

The structures appear in SMILES notation.

Regarding `COCc1nc2c([nH]1)c(=O)n(C)c(=O)n2CC(C)C` [8-MIBMX, reference compound], the glucose uptake-promoting activity entry in the data set on Mouse 3T3-L1 fibroblasts is recorded as “did not promote glucose uptake”.

Turning to `CNc1ccc2oc(C[C@H]3O[C@@]4(CC[C@H]3C)O[C@H]([C@H](C)C(=O)c3ccc[nH]3)[C@H](C)C[C@H]4C)nc2c1C(=O)O` [A23187, reference compound], the glucose uptake-promoting activity result in the data set with Mouse 3T3-L1 fibroblasts is “did not promote glucose uptake”.

On to `COc1c(Cl)c(O)c(C(=O)CC(C)(C)C)c(O)c1Cl` [DIF-1 (3M)], for which, in the data set on KKAy diabetic model mice, the “blood glucose level as compared with the control group” value is listed as “low blood glucose level” and the death of mice result is listed as “No mice died”.

Consider `CCCCCC(=O)c1c(O)c(Cl)c(OC)c(Cl)c1O` [DIF-1], for which the “cell morphology and cell damage by microscopic observation” value in the data set with Mouse 3T3-L1 fibroblasts (3T3-L1 fibroblasts in the presence of DIF-1) is “cell damage was not observed”. Also, the “glucose uptake ratio of the cell (ratio with respect to the control)” value in the data set with Mouse 3T3-L1 fibroblasts (3T3-L1 fibroblasts, 10-12 hours culture, 10 or 20 µM DIF-1, FIG. 1, n=4) is “increased dependently on DIF-1 concentration”. The “glucose uptake of cells (glucose consumption rate)” value in the data set on Mouse 3T3-L1 fibroblasts (3T3-L1 fibroblasts, 20-hour culture with DIF-1, FIG. 2A/2B, n=3) is recorded as “promotes glucose uptake of cells in a concentration-dependent manner”. In addition, the number of cells result in the data set on Mouse 3T3-L1 fibroblasts (3T3-L1 fibroblasts, after 40-hour culture, FIG. 2C) is reported as “without influencing the number of cells”. Further, the “reversibility of the action on glucose uptake” value with Mouse 3T3-L1 fibroblasts (3T3-L1 fibroblasts, medium changed to DIF-1-free medium, another 20 hours, FIG. 2A) is on record as “reversible”. Moreover, the glucose uptake entry in data set [1] (6- and 12-hour culture, FIG. 4) was “promotes glucose uptake in a concentration-dependent manner”. For the same molecule, the cell number result in data set [1] (after 12-hour culture, FIG. 4C) is “without influencing cell number”. Also, the 2-deoxy glucose uptake entry with 3T3-L1 adipocytes (DIF-1 singly, four hours, FIG. 5, n=2) is on record as “promoted glucose uptake in a concentration-dependent manner”. Further, the “2-deoxy glucose uptake with insulin” value in the data set on 3T3-L1 adipocytes (relatively low concentration of DIF-1 plus 100 nM insulin for the last 30 minutes, FIG. 5) was “additive effect with insulin”. The “blood glucose level as compared with the control group” value was “low blood glucose level” in the data set with KKAy diabetic model mice and “significantly lowered blood glucose level” with ICR mice. In addition, in the data set on KKAy diabetic model mice, the death of mice result is “No mice died”.

Take `C/C=C(/C)C(=O)O[C@H]1C(C)=C2[C@H]([C@@H]1OC(=O)CCCCCCC)[C@@](C)(OC(C)=O)C[C@H](OC(=O)CCC)[C@@]1(O)[C@H]2OC(=O)[C@@]1(C)O` [Tg, Thapsigargin, reference compound]: the glucose uptake-promoting activity result in the data set with Mouse 3T3-L1 fibroblasts is listed as “did not promote glucose uptake”.
